The values that follow come from paper PMC6006164, “Natural cyclopeptide RA-V inhibits the NF-κB signaling pathway by targeting TAK1” (Cell Death & Disease, 2018).

One assay deals with NF-κB signaling pathway. The assay is described as follows: NF-κB-dependent luciferase reporter (5×κB-luciferase/pTK-Renilla), TNF-α-induced, HEK293T cells. Type of assay: cell-based. The conditions noted are these: for IC50: HEK293T, compounds 6 h, then 10 ng/ml TNF-α 2 h, means of three independent experiments, read-out: IC50 (μM), NF-κB reporter activity. How it is done: HEK293T or HeLa cells were seeded in 24-well plates and transiently transfected with the 5 × κB-luciferase and pTK-Renilla reporters using Lipofectamine 2000 (Invitrogen) for 18 h. The cells were then incubated with different concentrations of the compounds for the indicated times and subsequently stimulated with 10 ng/mL TNF-α for 2 h. The luciferase activity in the cell lysates was analyzed using the Dual Luciferase Reporter Assay System (Promega). The luciferase reporter assays were performed as previously described.
Supplementary Figure 1. RA-V has the best inhibitory effect on NF-κB signaling pathway among RAs. (a-b) HEK293T cells were transfected with the 5×κB-luciferase and pTK-Renilla reporters. Twenty-four hours after transfection, the cells were incubated with various concentrations of the indicated compounds for 6 h and then treated with 10 ng/ml TNF-α for 2 h before the luciferase activity assays. The data are presented as the means ± S.D. from three independent experiments. […]
Scheme for CB12 synthesis. (c) CB12 inhibited NF-κB reporter activity in a dose-dependent manner. The HEK293T cells were transfected with the 5×κB-luciferase and pTK-Renilla reporters. Twenty-four h after transfection, the cells were treated with various concentrations of CB12 for 6 h and then treated with 10 ng/ml TNF-α for 2 h before the luciferase activity assays. (d) […]
Supplementary Table 3: Screening data of small molecules
Category Parameter Description
Assay Type of assay Cell-based
Target NF-κB signaling pathway
Primary measurement Detection of Firefly luciferase enzyme activities and Renilla Luciferase expression
Key reagents 5 × κB-lucieferase and luciferase assay (Progema)
Assay protocol HEK293T cells were seeded in 24 -well plates and transiently transfected with 20 ng of 5×κB-luciferase and 2 ng of pTK-Renilla reporters using Lipofectamine
2000 (Invitrogen) for 18 h. The cells were then incubated with small molecules (10 μM) for 6 hours, and subsequently stimulated with 10 ng/ml TNF -α for 2 h. Luciferase activity of the cell lysates was analysed by the Dual Luciferase Reported Assay System
(Promega). The Firefly luciferase enzyme activities were determined for NF -κB signaling activities and normalized to Renilla Luciferase expression.
Library Library size approximately 200
Library composition natural and synthetic chemical compounds, including cyclopeptides, quinones and terpenes.
Source State Key Laboratory of Phytochemistry and Plant
Resources in West China, Kunming Institute of Botany, Chinese Academy of Sciences
Screen Format 24-well, Corning
Concentration(s) tested 10 μM
Reagent/ compound dispensing system Manual
Detection instrument and software Synergy 2 (BioTek)
Assay validation/QC Velcade inhibits NF-κB signaling pathway
Normalization The Firefly luciferase enzyme activities were normalized by Renilla Luciferase expression
Post-HTS analysis Hit criteria κB-luc/ Renilla ratio < 0.5 standard deviations from the […]
Hit rate Approximately 15%
Confirmation of hit purity and structure Compounds were verified by HPLC and NMR
A general note: Reporter assays use an easily measured gene product as a stand-in for the process of interest.

The next assay addresses T1, TAK1 (Homo sapiens, UniProt O43318).
T1 construct: expressed in transfected cells; host or cells: HEK293T
T1 sequence (O43318 1-579 isoform O43318-2): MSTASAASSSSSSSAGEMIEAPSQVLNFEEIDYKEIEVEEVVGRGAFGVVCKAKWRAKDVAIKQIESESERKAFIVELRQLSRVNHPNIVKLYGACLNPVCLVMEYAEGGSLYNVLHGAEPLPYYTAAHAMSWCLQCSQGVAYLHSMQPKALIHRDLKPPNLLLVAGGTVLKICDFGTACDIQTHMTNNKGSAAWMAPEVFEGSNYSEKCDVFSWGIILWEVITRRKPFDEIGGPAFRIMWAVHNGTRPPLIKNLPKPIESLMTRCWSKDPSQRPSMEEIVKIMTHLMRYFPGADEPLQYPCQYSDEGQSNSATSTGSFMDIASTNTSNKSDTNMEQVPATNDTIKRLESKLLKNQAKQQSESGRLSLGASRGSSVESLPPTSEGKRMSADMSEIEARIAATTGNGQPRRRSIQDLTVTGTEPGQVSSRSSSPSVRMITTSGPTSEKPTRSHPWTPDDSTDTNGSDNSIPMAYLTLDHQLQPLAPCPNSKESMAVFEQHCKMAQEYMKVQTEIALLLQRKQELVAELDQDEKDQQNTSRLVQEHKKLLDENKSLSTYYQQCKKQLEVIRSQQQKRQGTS
The assay is described as follows: Streptavidin agarose pull-down with biotin-tagged probe CB12. It is filed as binding. The settings on record: lysates of HEK293T transfected with TAK1; RA-V in 10-fold excess.

“And” between values parts separate entries of the source, which are not always exact repeats. Identical values can stand only once. Some results are limits rather than exact numbers.

Procedure for TAK1: HEK293T cells were transfected with TAK1 for 24 h, then the cell lysates were incubated with biotin or CB12 followed by streptavidin agarose pull-down. […] HEK293T cells were transfected with the indicated plasmids for 24 h. The cell lysates were pulled down with streptavidin agarose and then immunoblotted with HA or Flag antibody. Each experiment was repeated at least three times
HEK293T cells were transfected with TAK1-N or TAK1-C for 24 h. The cells lysates were incubated with CB12 or biotin and precipitated with streptavidin-coated sepharose and were analyzed by immunoblotting with Flag antibody. b The model for RA-V binding to the crystal structure of the TAK1–TAB1 fusion protein (PDB 4GS6). […] HEK293T cells were transfected with TAK1 for 24 h, and then the cell lysates were incubated with biotin or CB12 before precipitation with streptavidin agarose. […] HeLa cells were incubated with various concentrations of RA-V for 12 h and then treated with 10 ng/mL TNF-α for 10 min. The cell lysates were prepared and western blotted with the indicated antibodies. Each experiment was repeated at least three times
HEK293T cells were harvested and lysed in RIPA buffer with protease inhibitors. […] The samples were separated by SDS-PAGE, and the bound proteins were detected using the indicated antibodies.

By IC50 is commonly meant the concentration that inhibits the measured activity by half. As to Rubiyunnanin A, in the assay on NF-κB signaling pathway, the half-maximal inhibitory concentration (IC50) is greater than 15 µM. Still for that read-out and setting: next, RA-XII: 1.85 µM; Rubiyunnanin F: greater than 15 µM; RA-XXIV: 11.9 µM. On the same count and under the same terms, next, Rubiaschumanin B: 3.88 µM.

As for RA-XIII, the IC50 in the assay with NF-κB signaling pathway was greater than 15 µM.

Turning to O-seco-RA-V, in the assay with NF-κB signaling pathway, the IC50 was greater than 15 µM. As to RA-XI isoform 2, the concentration for half-maximal inhibition (IC50) in the assay on NF-κB signaling pathway was greater than 15 µM. As to `COc1cc(O)c2c(c1)/C=C/C[C@H](O)[C@H](O)C(=O)/C=C\C[C@H](C)OC2=O` [(5Z)-7-Oxozeaenol, reference compound], the “competition with the CB12–TAK1 interaction (pull-down)” value on TAK1 is listed as “effectively competed”. As to Rubicordifolin A, in the assay on NF-κB signaling pathway, the 50% inhibitory concentration (IC50) came out at 3.41 µM. For the molecule RA-XI isoform 1, the IC50 in the assay with NF-κB signaling pathway was greater than 15 µM. The same measure, in the same setting: for RA-VII the value was 0.089 µM; for RY-II, > 15 µM and 19 µM.

Consider `CC(C)C[C@H](NC(=O)[C@H](Cc1ccccc1)NC(=O)c1cnccn1)B(O)O` [Velcade, Bortezomib, reference compound], for which, in the assay with NF-κB signaling pathway (HEK293T screen, 24-well), the “NF-κB signaling pathway (plate control, assay validation)” value is recorded as “inhibits”. Consider RA-XIII-OMe, for which the IC50 in the assay with NF-κB signaling pathway was greater than 15 µM. Still for that read-out and setting: next, C-6β-oxy-RA-IV: 2.06 µM.

Turning to Rubiyunnanin B, in the assay on NF-κB signaling pathway, the half-maximal inhibitory concentration (IC50) is > 15 µM and 15.1 µM. Consider Rubiyunnanin C, for which the IC50 in the assay on NF-κB signaling pathway is greater than 15 µM. On the same count and under the same terms, next, Rubiyunnanin H: greater than 15 µM; Rubiyunnanin D: greater than 15 µM; Rubiyunnanin G: greater than 15 µM. Still for that read-out and setting: for Rubicordifolin C the value was 6.87 µM.

Turning to Rubiaschumanin A, in the assay with NF-κB signaling pathway, the IC50 is greater than 15 µM. On the same count and under the same terms, next, Rubiyunnanin E: greater than 15 µM; RA-IV: 10.6 µM.

On to Rubiyunnanin I, for which the half-inhibitory concentration (IC50) in the assay on NF-κB signaling pathway is greater than 15 µM.

With RA-III, in the assay with NF-κB signaling pathway, the IC50 was found to be 1.1 µM. Same read-out and setting: for RA-I the value was 1.31 µM. On the same count and under the same terms, for Rubiaschumanin C the value was greater than 15 µM.
